{
  "source": "patent US11000033B2",
  "about": "“Ketone or oxime compound, and herbicide” (NISSAN CHEMICAL CORPORATION, priority 2014, dated 2021)",
  "assay_type_in_all_cases": "in vivo",
  "key": {"Scirpus juncoides": {"system": "Scirpus juncoides", "test": "Test Example 1: herbicidal activity, application before weed generation in submerged conditions (symbol B)", "conditions": "application herbicide amount 320 g/ha", "in_short": "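Steps: alluvial soil flooded to 4 cm; weed seeds sown together; rice seedlings (2.5 leaf) transplanted; diluted emulsion applied to water surface the same day as sowing; plants grown at 25–30 °C in greenhouse; herbicidal effect rated on a 0–5 scale at 3 weeks.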"}, "[1]": {"system": "directly sowed rice plant", "test": "Test Example 3: effect on crop by foliage application, Wagner pot (symbol b)", "conditions": "application herbicide amount 320 g/ha", "in_short": "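Plants are raised from seed in flooded paddy conditions: water stands 0.1–0.5 cm over alluvial soil, and the pot is kept in a greenhouse at 25–30 °C. Species sown are barnyardgrass (E. crus-galli var. crus-galli), Leptochloa chinensis, Cyperus difformis and rice.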"}, "Digitaria ciliaris [2]": {"system": "Digitaria ciliaris", "test": "Test Example 4: herbicidal effect by soil treatment (symbol F)", "in_short": "(§1)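 Seeds were sown in sterilized diluvial soil, covered with about 1.5 cm of soil, and the soil surface was sprayed with a water-diluted emulsion of the compound at a predetermined rate. Plants grew in a greenhouse at 25° C. to 30° C.; effects were scored visually 3 weeks after application.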"}, "[3]": {"system": "Echinochloa crus-galli var. crus-galli", "test": "Test Example 4: herbicidal effect by soil treatment (symbol H)", "in_short": "as §1"}, "Avena fatua [4]": {"system": "Avena fatua", "test": "Test Example 4: herbicidal effect by soil treatment (symbol I)", "in_short": "as §1"}, "Lolium multiflorum Lam.": {"system": "Lolium multiflorum Lam.", "test": "Test Example 4: herbicidal effect by soil treatment (symbol K)", "in_short": "as §1"}, "rice": {"system": "rice", "test": "Test Example 4: effect on crop by soil treatment (symbol b)", "in_short": "(§2)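 Sterilized diluvial soil, spot sowing, ~1.5 cm soil cover; greenhouse 25–30° C.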"}, "rapeseed [5]": {"system": "rapeseed", "test": "Test Example 4: effect on crop by soil treatment (symbol g)", "in_short": "as §2"}, "Digitaria ciliaris [6]": {"system": "Digitaria ciliaris", "test": "Test Example 5: herbicidal effect by foliage application, plastic box (symbol F)", "conditions": "320 g/ha, 3 weeks after application", "in_short": "(§3)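 Leaf-applied emulsion, water-diluted to a preset herbicide dose, on two-week-old seedlings raised in a 25° C. to 30° C. greenhouse; injury rated at 3 weeks using earlier criteria.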"}, "Avena fatua [7]": {"system": "Avena fatua", "test": "Test Example 5: herbicidal effect by foliage application, plastic box (symbol I)", "conditions": "320 g/ha, 3 weeks after application", "in_short": "as §3"}, "Chenopodium album": {"system": "Chenopodium album", "test": "Test Example 5: herbicidal effect by foliage application, plastic box (symbol O)", "conditions": "320 g/ha, 3 weeks after application", "in_short": "as §3"}, "Stellaria media": {"system": "Stellaria media", "test": "Test Example 5: herbicidal effect by foliage application, plastic box (symbol P)", "conditions": "320 g/ha, 3 weeks after application", "in_short": "as §3"}, "Veronica persica": {"system": "Veronica persica", "test": "Test Example 5: herbicidal effect by foliage application, plastic box (symbol R)", "conditions": "320 g/ha, 3 weeks after application", "in_short": "as §3"}, "corn": {"system": "corn", "test": "Test Example 5: effect on crop by foliage application, plastic box (symbol c)", "conditions": "320 g/ha, 3 weeks after application", "in_short": "(§4)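 Plants were raised from seed in a greenhouse (25° C. to 30° C.) after sowing in a plastic box of sterilized diluvial soil.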"}, "wheat": {"system": "wheat", "test": "Test Example 5: effect on crop by foliage application, plastic box (symbol e)", "conditions": "320 g/ha, 3 weeks after application", "in_short": "as §4"}, "rapeseed [8]": {"system": "rapeseed", "test": "Test Example 5: effect on crop by foliage application, plastic box (symbol g)", "conditions": "320 g/ha, 3 weeks after application", "in_short": "as §4"}, "[9]": {"conditions": "application herbicide amount 320 g/ha"}},
  "data": [
    {"compound": "CCCCCCCCS(=O)(=O)OC1=C(c2c(C)cc(C)cc2C)C(=O)C(CC(C)=NOC)C1", "note": "(centres unmarked) [1-107]", "values": [
      {"measurement": "Herbicidal effect grade, B: Scirpus juncoides", "setting": "Scirpus juncoides", "result": "4 (Herbicidal ratio of 70% or higher and lower than 90%)"},
      {"measurement": "effect on crop b (directly sowed rice plant), grade 0-5", "setting": "[1]", "result": "5 (Herbicidal ratio of 90% or more (almost completely withered))"},
      {"measurement": "F: Digitaria ciliaris, herbicidal effect grade", "setting": "Digitaria ciliaris [2]; 320 g/ha", "result": "5 (Herbicidal ratio of 90% or more (almost completely withered))"},
      {"measurement": "H: Echinochloa crus-galli var. crus-galli, herbicidal effect grade", "setting": "[3]; 320 g/ha", "result": "5 (Herbicidal ratio of 90% or more (almost completely withered))"},
      {"measurement": "I: Avena fatua, herbicidal effect grade", "setting": "Avena fatua [4]; 320 g/ha", "result": "0 (Herbicidal ratio of 5% or lower (almost no effect))"},
      {"measurement": "K: Lolium multiflorum Lam., herbicidal effect grade", "setting": "Lolium multiflorum Lam.; 320 g/ha", "result": "5 (Herbicidal ratio of 90% or more (almost completely withered))"},
      {"measurement": "b: directly sowed rice plant, effect grade on crop", "setting": "rice; 320 g/ha", "result": "5 (Herbicidal ratio of 90% or more (almost completely withered))"},
      {"measurement": "g: rapeseed, effect grade on crop", "setting": "rapeseed [5]; 320 g/ha", "result": "2 (Herbicidal ratio of 20% or higher and lower than 40%)"},
      {"measurement": "F: Digitaria ciliaris, herbicidal effect (criteria 0-5)", "setting": "Digitaria ciliaris [6]", "result": "4 (Herbicidal ratio of 70% or higher and lower than 90%)"},
      {"measurement": "I: Avena fatua, herbicidal effect (criteria 0-5)", "setting": "Avena fatua [7]", "result": "5 (Herbicidal ratio of 90% or more (almost completely withered))"},
      {"measurement": "O: Chenopodium album, herbicidal effect (criteria 0-5)", "setting": "Chenopodium album", "result": "0 (Herbicidal ratio of 5% or lower (almost no effect))"},
      {"measurement": "P: Stellaria media, herbicidal effect (criteria 0-5)", "setting": "Stellaria media", "result": "0 (Herbicidal ratio of 5% or lower (almost no effect))"},
      {"measurement": "R: Veronica persica, herbicidal effect (criteria 0-5)", "setting": "Veronica persica", "result": "0 (Herbicidal ratio of 5% or lower (almost no effect))"},
      {"measurement": "c: corn, effect on crop (criteria 0-5)", "setting": "corn", "result": "2 (Herbicidal ratio of 20% or higher and lower than 40%)"},
      {"measurement": "e: wheat, effect on crop (criteria 0-5)", "setting": "wheat", "result": "2 (Herbicidal ratio of 20% or higher and lower than 40%)"},
      {"measurement": "g: rapeseed, effect on crop (criteria 0-5)", "setting": "rapeseed [8]", "result": "4 (Herbicidal ratio of 70% or higher and lower than 90%)"}
    ]},
    {"compound": "CON=C(CC1CC(O)=C(c2c(C)cc(C)cc2OC)C1=O)C1CC1", "note": "(mixture of isomers) [13-002]", "values": [
      {"measurement": "B (Scirpus juncoides) herbicidal effect grade", "setting": "Scirpus juncoides", "result": "4 (Herbicidal ratio of 70% or higher and lower than 90%)"},
      {"measurement": "b (directly sowed rice plant) effect on crop grade", "setting": "[1]; Table 24", "result": "5 (Herbicidal ratio of 90% or more (almost completely withered))"},
      {"measurement": "F: Digitaria ciliaris, herbicidal effect grade", "setting": "Digitaria ciliaris [2]; [9]", "result": "5 (Herbicidal ratio of 90% or more (almost completely withered))"},
      {"measurement": "H: Echinochloa crus-galli var. crus-galli, herbicidal effect grade", "setting": "[3]; [9]", "result": "5 (Herbicidal ratio of 90% or more (almost completely withered))"},
      {"measurement": "I: Avena fatua, herbicidal effect grade", "setting": "Avena fatua [4]; [9]", "result": "4 (Herbicidal ratio of 70% or higher and lower than 90%)"},
      {"measurement": "K: Lolium multiflorum Lam., herbicidal effect grade", "setting": "Lolium multiflorum Lam.; [9]", "result": "5 (Herbicidal ratio of 90% or more (almost completely withered))"},
      {"measurement": "b: directly sowed rice plant, effect on crop grade", "setting": "rice; [9]", "result": "5 (Herbicidal ratio of 90% or more (almost completely withered))"},
      {"measurement": "g: rapeseed, effect on crop grade", "setting": "rapeseed [5]; [9]", "result": "1 (Herbicidal ratio of 5% or higher and lower than 20%)"},
      {"measurement": "F: Digitaria ciliaris, herbicidal effect grade", "setting": "Digitaria ciliaris [6]", "result": "5 (Herbicidal ratio of 90% or more (almost completely withered))"},
      {"measurement": "I: Avena fatua, herbicidal effect grade", "setting": "Avena fatua [7]", "result": "5 (Herbicidal ratio of 90% or more (almost completely withered))"},
      {"measurement": "O: Chenopodium album, herbicidal effect grade", "setting": "Chenopodium album", "result": "5 (Herbicidal ratio of 90% or more (almost completely withered))"},
      {"measurement": "P: Stellaria media, herbicidal effect grade", "setting": "Stellaria media", "result": "3 (Herbicidal ratio of 40% or higher and lower than 70%)"},
      {"measurement": "R: Veronica persica, herbicidal effect grade", "setting": "Veronica persica", "result": "4 (Herbicidal ratio of 70% or higher and lower than 90%)"},
      {"measurement": "c: corn, effect on crop grade", "setting": "corn", "result": "5 (Herbicidal ratio of 90% or more (almost completely withered))"},
      {"measurement": "e: wheat, effect on crop grade", "setting": "wheat", "result": "5 (Herbicidal ratio of 90% or more (almost completely withered))"},
      {"measurement": "g: rapeseed, effect on crop grade", "setting": "rapeseed [8]", "result": "4 (Herbicidal ratio of 70% or higher and lower than 90%)"}
    ]}
  ]
}
